Read-outs that look alike come from different tables or passages of the source.
How the values were obtained:
pig TRPM8 [1] = molecular target: T1, pig TRPM8 (Sus scrofa, UniProt F1SM15); experiment: In vitro pig TRPM8 fluorescence calcium flux assay (recombinant CHO cells, Fluo4-AM, FDSS6000); type: cell-based; settings: recombinant CHO cells expressing pig TRPM8; menthol-related EC50, normalized to 100 μM menthol
T1 construct: expressed in transfected cells; host or cells: CHO (pcDNA5/FRT/TO vector; hygromycin B and blasticidin selection)
T1 sequence (F1SM15 1-1104): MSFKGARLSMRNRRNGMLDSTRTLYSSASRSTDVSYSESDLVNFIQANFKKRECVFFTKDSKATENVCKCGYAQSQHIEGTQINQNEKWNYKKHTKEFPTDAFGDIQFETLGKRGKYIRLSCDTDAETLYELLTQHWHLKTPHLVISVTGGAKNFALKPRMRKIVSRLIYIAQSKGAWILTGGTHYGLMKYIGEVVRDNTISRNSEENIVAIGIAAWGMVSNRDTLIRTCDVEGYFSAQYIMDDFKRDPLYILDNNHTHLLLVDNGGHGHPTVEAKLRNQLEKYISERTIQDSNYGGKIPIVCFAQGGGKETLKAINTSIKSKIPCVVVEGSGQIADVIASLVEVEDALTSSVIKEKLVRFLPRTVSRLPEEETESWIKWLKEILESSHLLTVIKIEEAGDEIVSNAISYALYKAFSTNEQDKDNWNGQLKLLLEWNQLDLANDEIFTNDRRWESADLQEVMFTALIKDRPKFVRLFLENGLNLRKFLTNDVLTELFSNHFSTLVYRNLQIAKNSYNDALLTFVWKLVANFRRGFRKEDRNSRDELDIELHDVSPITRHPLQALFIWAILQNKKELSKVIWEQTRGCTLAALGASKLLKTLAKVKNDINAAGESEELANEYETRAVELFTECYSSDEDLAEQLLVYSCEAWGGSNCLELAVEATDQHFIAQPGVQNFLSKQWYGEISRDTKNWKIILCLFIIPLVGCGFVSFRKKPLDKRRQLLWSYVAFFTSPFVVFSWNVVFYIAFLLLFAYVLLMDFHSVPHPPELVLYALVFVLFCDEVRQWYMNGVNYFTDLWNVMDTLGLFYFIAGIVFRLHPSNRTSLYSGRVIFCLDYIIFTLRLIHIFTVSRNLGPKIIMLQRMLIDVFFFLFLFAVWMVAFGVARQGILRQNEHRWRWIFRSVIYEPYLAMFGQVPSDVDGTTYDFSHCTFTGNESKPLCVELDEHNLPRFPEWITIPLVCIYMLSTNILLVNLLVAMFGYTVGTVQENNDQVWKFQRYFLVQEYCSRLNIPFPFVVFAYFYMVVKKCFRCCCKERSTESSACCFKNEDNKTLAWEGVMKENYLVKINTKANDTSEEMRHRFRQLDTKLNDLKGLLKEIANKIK
Outline: (§1)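 Agonist EC50 values come from sixteen-point dose responses normalized to the 100 μM menthol maximum, fitted sigmoidally. Calcium rise was followed for 3 min post-addition in recombinant CHO lines (human or pig TRPM8). Cells were dye-loaded with 2 μM Fluo4-AM, 1 h at room temperature, probenecid-containing HBSS.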

human TRPM8 [2] = molecular target: T2, human TRPM8 (Homo sapiens, UniProt Q7Z2W7); experiment: In vitro human TRPM8 automated patch-clamp assay (SyncroPatch 384PE, CHO cells); type: cell-based; settings: CHO cells expressing human TRPM8, 28° C.
T2 construct: expressed in transfected cells; host or cells: CHO (p658 mammalian expression vector)
T2 sequence (Q7Z2W7 whole entry): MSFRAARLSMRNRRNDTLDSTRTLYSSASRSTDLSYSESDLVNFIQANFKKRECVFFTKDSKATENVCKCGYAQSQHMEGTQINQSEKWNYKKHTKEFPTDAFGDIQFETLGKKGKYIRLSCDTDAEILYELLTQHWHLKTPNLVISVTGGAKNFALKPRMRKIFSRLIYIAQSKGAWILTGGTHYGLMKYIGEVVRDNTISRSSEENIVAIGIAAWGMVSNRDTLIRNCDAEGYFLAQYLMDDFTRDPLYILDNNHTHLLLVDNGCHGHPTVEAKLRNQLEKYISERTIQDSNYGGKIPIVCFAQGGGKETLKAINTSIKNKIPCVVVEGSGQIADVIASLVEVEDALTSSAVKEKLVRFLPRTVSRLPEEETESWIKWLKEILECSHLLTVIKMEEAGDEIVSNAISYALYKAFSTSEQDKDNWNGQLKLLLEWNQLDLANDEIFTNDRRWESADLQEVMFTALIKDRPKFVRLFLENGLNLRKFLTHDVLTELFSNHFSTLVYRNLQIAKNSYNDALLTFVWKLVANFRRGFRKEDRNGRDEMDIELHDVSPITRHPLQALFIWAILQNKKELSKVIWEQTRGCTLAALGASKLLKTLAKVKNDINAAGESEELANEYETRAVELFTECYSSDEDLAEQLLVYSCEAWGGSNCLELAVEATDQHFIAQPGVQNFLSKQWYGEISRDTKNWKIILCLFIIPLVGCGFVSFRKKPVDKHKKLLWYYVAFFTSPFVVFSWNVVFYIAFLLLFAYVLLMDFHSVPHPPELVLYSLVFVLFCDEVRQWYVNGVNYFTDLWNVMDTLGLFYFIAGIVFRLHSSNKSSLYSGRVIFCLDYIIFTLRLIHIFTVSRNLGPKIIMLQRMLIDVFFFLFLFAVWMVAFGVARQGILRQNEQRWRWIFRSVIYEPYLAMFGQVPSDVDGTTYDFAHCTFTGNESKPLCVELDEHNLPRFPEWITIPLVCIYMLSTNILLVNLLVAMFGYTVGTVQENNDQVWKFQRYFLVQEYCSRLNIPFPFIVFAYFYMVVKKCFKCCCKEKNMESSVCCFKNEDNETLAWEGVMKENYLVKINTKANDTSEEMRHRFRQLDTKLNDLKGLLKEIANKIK
Outline: (§2)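 Whole-cell automated patch clamp on engineered CHO lines at 28 °C, held at −60 mV, with −80 to +80 mV ramps every 5 s; one compound concentration per well. Peak current minus pre-addition baseline was normalised to no-compound control and Emax, and EC50 was fitted; 200 μM menthol wells served as control.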

[3] = tested on: Male castrated German Landrace pigs; experiment: In vivo assay: enhancement of swallowing in anesthetized pigs (manometry with pressure probe in the mouth); settings: Sus scrofa, anesthetized pig, dose per pig 10 mg, injected in 1 ml vehicle into the oral cavity
Procedure: For testing the efficacy of TRPM8 agonists for enhancing swallowing, experiment using the pig model can be conducted according to assay described below. The efficacy can be compared to a vehicle control.
Male castrated German Landrace pigs (weight range of 20 to 35 kg) were used. Anesthesia was induced by injecting 20 ml of a urethane solution (20 g/100 mL dissolved in saline) into an ear vein corresponding to a dose of around […]. Anesthesia was maintained by continuous infusion of 15-20 mL per hour of the urethane solution, which was infused into an epigastric vein, and additionally by infusion of Zoletil and Rompun (500 mg Zoletil is disssovled in 10 ml of Rompun 2%, then diluted 1:10 with saline and 3-5 mL per hour of this diluted solution. Bupivacain 0.5% JENAPHARM@ was injected for additional infiltration anesthesia. Anesthesia was monitored via pulsoximetry (ear) and regular reflex testing for pain. Body temperature was monitored and maintained by an infrared lamp.
Preparation of pigs: Swallowing responses were assessed by manometry with a pressure probe placed into the mouth of the pig. The pressure probe consisted of a plastic tube (diameter 3.3 mm) to which a small balloon was attached. The tube was advanced about 12-14 cm into the mouth related to the snout. The balloon was then inflated with air to yield a pressure of 20-30mbar (vehicle). Ideally a swallowing response with 1 ml of fluid raised this pressure by 20-50mbar which was then referred to as the swallowing pressure (the increment of this pre-set pressure in the inflated balloon after swallowing) to be further enhanced by an effective test drug.
The free end of the tube was connected to a differential pressure transducer MPX Type 399/2 (Hugo Sachs Elektronik-Harvard Apparatus) and a Hugo Sachs Plugsys-amplifier system. The biological signals were recorded by a Hugo Sachs Plugsys-amplifier system and continuously stored on a computer hard disk by an on line data acquisition and analysis system (Hem 4.2 Notocord Systems, Croissy-sur-Seine, France).
A second tube referred to as injection tube was placed dorsally to the manometer tube to enable the administration of the vehicle that induced the baseline swallowing activity, or of this same vehicle containing the test compound.
Induction and assessment of swallowing activity: 0.5h after anesthesia induction 1 ml of a fluid or the vehicle for the test drug was injected into the injection tube placed into the oral cavity. The number of swallows was counted and the highest-pressure increment was registered. Challenges with vehicle were repeated at intervals of 30 min until two consecutive vehicle challenges show an about equal swallowing response. The next challenge was the vehicle loaded with the test drug (otherwise same procedure). The efficacy of a compound to enhance swallowing as shown in Table 7 was expressed as the % increase in pressure and frequency of swallowing after administration of the compound compared to the pressure and frequency recorded for its vehicle administered just before.

human TRPM8 [4] = molecular target: T2, human TRPM8; experiment: In vitro human TRPM8 fluorescence calcium flux assay (recombinant CHO cells, Fluo4-AM, FDSS6000); type: cell-based; settings: recombinant CHO cells expressing human TRPM8; menthol-related EC50, normalized to 100 μM menthol
Outline: as §1

pig TRPM8 [5] = molecular target: T1, pig TRPM8; experiment: In vitro pig TRPM8 automated patch-clamp assay (SyncroPatch 384PE, CHO cells); type: cell-based; settings: CHO cells expressing pig TRPM8, 28° C.
Outline: as §2

[6] = frequency of swallowing compared with vehicle administered just before, read-out: % increase frequence vs vehicle
[7] = swallowing pressure compared with vehicle administered just before, read-out: % increase pressure vs vehicle

SMILES	EC50 (pig TRPM8 [1]) [nM]	EC50 (human TRPM8 [2]) [nM]	change in vivo at 10 mg [3, 6] [%]	change in vivo at 10 mg [3, 7] [%]	EC50 (human TRPM8 [4]) [nM]	EC50 (pig TRPM8 [5]) [nM]
CC(C)[C@@H]1CC[C@@H](C)C[C@@]1(O)C(=O)NCC1(c2ccccc2)COC1 [Example 31, (1S,2S,5R)-1-hydroxy-2-isopropyl-5-methyl-N-((3-phenyloxetan-3-yl)methyl)cyclohexane-1-carboxamide]	9.3	2080	119	253	10.4	3150
CC(C)[C@@H]1CC[C@@H](C)C[C@@]1(O)C(=O)NCCc1ccccc1CCO [Example 52, (1S,2S,5R)-1-hydroxy-N-(2-(2-hydroxyethyl)phenethyl)-2-isopropyl-5-methylcyclohexane-1-carboxamide]	24.3	1300	172	202	26	864
CC(C)[C@@H]1CC[C@@H](C)C[C@@]1(O)C(=O)NCC(F)(F)c1ccccc1 [Example 4, (1S,2S,5R)—N-(2,2-difluoro-2-phenylethyl)-1-hydroxy-2-isopropyl-5-methylcyclohexane-1-carboxamide]	1.2	541	417	221	2.8	467
CC(C)[C@@H]1CC[C@@H](C)C[C@@]1(O)C(=O)NCCc1ccccc1OCCCO [Example 80, (1S,2S,5R)-1-hydroxy-N-(2-(3-hydroxypropoxy)phenethyl)-2-isopropyl-5-methylcyclohexane-1-carboxamide]	82	1800	91	86	40.2	3970
CC(C)[C@@H]1CC[C@@H](C)C[C@@]1(O)C(=O)NC[C@@H](O)c1ccccc1 [Example 1, (1S,2S,5R)-1-hydroxy-N—((S)-2-hydroxy-2-phenylethyl)-2-isopropyl-5-methylcyclohexane-1-carboxamide]	1.2	810	231	274	1.7	733
CC(C)[C@@H]1CC[C@@H](C)C[C@@]1(O)C(=O)NCCc1cccc(O)c1 [Example 40, (1S,2S,5R)-1-hydroxy-N-(3-hydroxyphenethyl)-2-isopropyl-5-methylcyclohexane-1-carboxamide]	1.4	1440	62	393	2.5	1760
CC(C)OC(=O)CNC(=O)[C@]1(O)C[C@H](C)CC[C@H]1C(C)C [Example 54, isopropyl ((1S,2S,5R)-1-hydroxy-2-isopropyl-5-methylcyclohexane-1-carbonyl)glycinate]	91.1	5650	75	64	226	8730
CC(C)[C@@H]1CC[C@@H](C)C[C@@]1(O)C(=O)NCCc1ccccc1OC[C@@H](O)CO [Example 25, (1S,2S,5R)—N-(2-((S)-2,3-dihydroxypropoxy)phenethyl)-1-hydroxy-2-isopropyl-5-methylcyclohexane-1-carboxamide]	32.8	2150	173	168	14.5	3400
CC(C)[C@@H]1CC[C@@H](C)C[C@@]1(O)C(=O)NCCc1ccccc1OCC(N)=O [Example 81, (1S,2S,5R)—N-(2-(2-amino-2-oxoethoxy)phenethyl)-1-hydroxy-2-isopropyl-5-methyl cyclohexane-1-carboxamide]	25.2	1500	247	315	27.7	4250
